Experimental data as given in patent US5945508A, “Substance P treatment for immunostimulation” (priority 1997, dated 1999).

How the values were obtained:
Spleen B Cell = test: Mitogenesis of spleen B cells, LP-BM5 mouse AIDS model; type: in vivo, C57BL6 mice
Protocol: C57BL6 mice, average weight of 25-30 grams, were infected with the LP-BM5 murine leukemia retrovirus to simulate the human AIDS virus. […] The mice were divided into two groups; LP-BM5 virus only and LP-BM5 virus+substance P aerosol therapy at 1 μM concentration. The mice were killed at 4 and 8 weeks postinoculation.
The proliferation of splenic B and T cells induced by mitogens was determined by incorporation of radioactive thymidine. Splenocytes in 0.1 ml of cell culture medium (1×10 ^7 cells/ml) were cultured in 96-well flat-bottom cultured plates with ConA and lipopolysaccharide, 5 micrograms/ml). The cells were incubated at 37° C., 5% CO2 incubator for 72 hours for ConA-induced T cell proliferation, and then pulsed with ^3 H-thymidine (1 microCurie/well). After 4 hours for radioactive thymidine uptake, the cells were harvested by a cell sample harvester. Radioactivity was determined by a liquid scintillation counter (Tri-Carb, 2200CA). The T and B cell mitogenesis values were recorded as counts per min in 1×10^7 cells/ml.

[1] = system: lymphocyte subpopulations; test: Flow cytometric analyses (FACS); type: in vivo, C57B16 mice
Protocol: (§1) At 24 hours after the last exposure, the animals were sacrificed and the effects of exposure on the immune system examined. Immune organs (spleen, thymus, blood, lymph nodes and bone marrow) were recovered and analyzed for effects on organ weight, total cell numbers, immune cell populations (by differentials), and lymphocyte subpopulations (by flow cytometry). Assays were also performed to examine the effects of exposure on immune function. […] Similar effects on immune cell subpopulations were also observed in lymph nodes. In the thymus it appeared that the immature CD4^+ CD8^+ cells were differentially lost due to exposure. […] However, these effects are prevented or ameliorated by treatment of the animals with Substance P.
One- and two-color FACS analyses are performed using a Becton-Dickinson FACStar Plus flow cytometer. Cells are stained with the indicated monoclonal antibodies according to standard procedures (Harris et al., id). Cells alone and cells reacted with conjugated isotype control, irrelevant mAbs are used as controls. Data is presented as the percentage of cells staining positive for each individual mAb.

immune system organs = test: Organ weight and total cell recovery; type: in vivo, C57B16 mice; parameters: Spleen Cell Number / Thymus Cell Number / LN Cell Number / BM Cell Number: scale not given here; Spleen Weight / Thymus Weight: unit not given here
Protocol: as §1
For each of the immune system organs (spleen, lymph nodes and thymus) the wet weight is determined after removal using a microbalance. After processing of the organs into single cell suspensions the cell numbers and viabilities are determined using trypan blue staining. Histochemical differentials are performed at this time. Cell numbers and viabilities are again determined after centrifugation of the cell suspensions through density gradients to obtain mononuclear cells.

immune system = test: Immunotoxicology of exposure to jet fuel JP-8; type: in vivo, C57B16 mice; details: JP-8 exposed animals treated with Substance P
Protocol: as §1

[2] = JP-8 1000 mg/m^3 + SP, nSP (1 nM), CP or RP

## Substance P [SP]
Spleen B Cell; 4 weeks after LP-BM5 infection, SP aerosol 1 μM 3 days/week, 25 Hours in Culture
  Spleen B Cell Mitogenesis: 2063 (448) counts per min
Spleen B Cell; 4 weeks after LP-BM5 infection, SP aerosol 1 μM 3 days/week, 48 Hours in Culture
  Spleen B Cell Mitogenesis: 1369 (231) counts per min
Spleen B Cell; 4 weeks after LP-BM5 infection, SP aerosol 1 μM 3 days/week, 72 Hours in Culture
  Spleen B Cell Mitogenesis: 1642 (158) counts per min
Spleen B Cell; 8 weeks post-infection with LP-BM5, SP aerosol 1 μM, 72 hours in culture
  Spleen B Cell Mitogenesis: 3227 (854) counts per min
[1]; JP-8 250 mg/m^3 + SP
  BM CD3 positive cells: 13%
  BM CD4 positive cells: 10%
  BM CD8 positive cells: 3%
  BM CD45 positive cells: 48%
  BM MAC1 positive cells: 10%
  LN CD3 positive cells: 85%
  LN CD4 positive cells: 48%
  LN CD8 positive cells: 12%
  LN CD45 positive cells: 13%
  LN MAC1 positive cells: 1%
  PBL CD3 positive cells: 59%
  PBL CD4 positive cells: 15%
  PBL CD8 positive cells: 6%
  PBL CD45 positive cells: 16%
  PBL MAC1 positive cells: 1%
  Spleen CD3 positive cells: 62%
  Spleen CD4 positive cells: 27%
  Spleen CD8 positive cells: 3%
  Spleen CD45 positive cells: 21%
  Spleen MAC1 positive cells: 1%
  Thymus CD3 positive cells: 24%
  Thymus DN cells: 5%
  Thymus DP cells: 68%
  Thymus SP4 cells: 22%
  Thymus SP8 cells: 5%
[1]; [2]
  BM CD3 positive cells: 14%
  BM CD4 positive cells: 9%
  BM CD8 positive cells: 2%
  BM CD45 positive cells: 31%
  BM MAC1 positive cells: 26%
  LN CD3 positive cells: 86%
  LN CD4 positive cells: 29%
  LN CD8 positive cells: 11%
  LN CD45 positive cells: 22%
  LN MAC1 positive cells: 0%
  PBL CD3 positive cells: 61%
  PBL CD4 positive cells: 23%
  PBL CD8 positive cells: 10%
  PBL CD45 positive cells: 22%
  PBL MAC1 positive cells: 3%
  Spleen CD3 positive cells: 34%
  Spleen CD4 positive cells: 18%
  Spleen CD8 positive cells: 10%
  Spleen CD45 positive cells: 20%
  Spleen MAC1 positive cells: 5%
  Thymus CD3 positive cells: 20%
  Thymus DN cells: 10%
  Thymus DP cells: 65%
  Thymus SP4 cells: 16%
  Thymus SP8 cells: 6%
[1]; JP-8 2500 mg/m^3 + SP
  BM CD3 positive cells: 6%
  BM CD4 positive cells: 3%
  BM CD8 positive cells: 6%
  BM CD45 positive cells: 24%
  BM MAC1 positive cells: 34%
  Spleen CD3 positive cells: 38%
  Spleen CD4 positive cells: 26%
  Spleen CD8 positive cells: 14%
  Spleen CD45 positive cells: 31%
  Spleen MAC1 positive cells: 3%
  Thymus CD3 positive cells: 16%
  Thymus DN cells: 19%
  Thymus DP cells: 64%
  Thymus SP4 cells: 15%
  Thymus SP8 cells: 5%
[1]; dose 0 (no JP-8) + SP or CP
  BM CD3 positive cells: 12%
  BM CD4 positive cells: 11%
  BM CD8 positive cells: 1%
  BM CD45 positive cells: 48%
  Spleen CD3 positive cells: 42%
  Spleen CD4 positive cells: 26%
  Spleen CD8 positive cells: 11%
  Spleen CD45 positive cells: 23%
  Spleen MAC1 positive cells: 1%
  Thymus CD3 positive cells: 10%
  Thymus DN cells: 7%
  Thymus DP cells: 84%
  Thymus SP4 cells: 6%
  Thymus SP8 cells: 2%
Immune system organs; JP-8 250 mg/m^3 + SP
  BM Cell Number: 23
  LN Cell Number: 10.8
  Spleen Cell Number: 40
  Spleen Weight: 0.16
  Thymus Cell Number: 70
  Thymus Weight: 0.06
Immune system organs; [2]
  BM Cell Number: 21
  LN Cell Number: 5.0
  Spleen Cell Number: 72
  Spleen Weight: 0.14
  Thymus Cell Number: 78
  Thymus Weight: 0.11
Immune system organs; JP-8 2500 mg/m^3 + SP
  BM Cell Number: 19
  LN Cell Number: 5.0
  Spleen Cell Number: 87
  Spleen Weight: 0.10
  Thymus Cell Number: 96
  Thymus Weight: 0.08
Immune system organs; Substance P at both 1 uM and 1 nM doses
  reversal of effects of JP-8 exposure on the immune system: significantly reversed
Immune system organs; dose 0 (no JP-8) + SP or CP
  BM Cell Number: 9
  Spleen Cell Number: 30
  Spleen Weight: 0.10
  Thymus Cell Number: 18
  Thymus Weight: 0.04
Immune system
  reversal of effects of JP-8 exposure on all measured parameters: invariably reversed the effects on all measured parameters of JP-8 exposure to almost normal levels
